Where a name gives a salt, the structure may show the parent alone.
Tests used:
healthy volunteers [1] = experiment: fMRI (BOLD) during Paired Associates Learning (PAL) task; type: in vivo, human
Description: (§1) A double blind, placebo controlled study was conducted in 19 healthy volunteers to investigate the role of NMDA receptor NR2B subunit selective antagonism on cognitive functions and neurophysiology as measured with magnetic resonance imaging (MRI). This study utilized functional MRI to determine changes in regional cerebral blood flow (rCBF) and the putative modulation of neural networks during performance of cognitive tasks by the subjects after they were administered the bis HCl salt of compound of formula (I).
The 19 healthy male volunteers who participated in this study were scanned using functional magnetic resonance imaging (fMRI) whilst performing cognitive tasks (including the PAL task described below in more detail) designed to measure associative learning, sustained attention, and episodic memory. These tasks were repeated on three study days two hours prior to the fMRI session. […]
Image preprocessing and analysis were carried out using Statistical Parametric Mapping software developed by the Functional Imaging Laboratory, UCL, (SPM v5.0, www.fillon.ucl.ac.ulc/spm/)., running under Matlab 7.0.1, and a blood oxygen level dependency (BOLD) was determined. […]

healthy volunteers [2] = experiment: Continuous arterial spin labeling (CASL) perfusion MRI of regional cerebral blood flow (rCBF); type: in vivo, human; conditions: for increase in rCBF: anterior cingulate cluster
Description: as §1
The 19 healthy male volunteers who participated in this study were scanned using functional magnetic resonance imaging (fMRI) whilst performing cognitive tasks (including the PAL task described below in more detail) designed to measure associative learning, sustained attention, and episodic memory. These tasks were repeated on three study days two hours prior to the fMRI session. On these three separate occasions, the participants received a capsule containing either placebo (microcrystalline cellulose), 8 mg, or 15 mg of the bis HCl salt of compound of formula (I) such that all treatments were given to all participants. During the fMRI session, the tasks were presented in a randomized order to each subject; however, the order assigned was then maintained across all three study sessions. Additional practice on the tasks was offered to the participants before entering the scanner, and the instructions were repeated prior to each task being performed whilst in the scanner.
Images were acquired on a 1.5T GE Excite HDx system (General Electric, Milwaukee, Wis.). For all tasks a gradient-echo EPI sequence was used with TE=40 ms, FOV=24 cm, and in-plane resolution of 3.75 mm^2 (matrix=64^2). Thirty-eight axial slices with thickness 3 mm (0.3 mm gap) approximately parallel to the AC/PC line were obtained. For the paired associates learning task TR=3000 ms. In addition, a high-resolution image was acquired using single shot EPI with TR=3000 ms, TE=40 ms, FOV=24 cm, 3 mm slice thickness with 0.3 mm gap, matrix=128^2, and 43 slices. This image was used to determine coregistration parameters.
Whole-brain resting perfusion images were acquired with a continuous arterial spin labeling (CASL) sequence consisting of a pseudo-continuous flow-driven, adiabatic inversion scheme and a continuous 3D fast spin echo (FSE) sequence with an interleaved stack of variable density spirals acquisition (Alsop and Detre (1998) Multisection cerebral blood flow MR imaging with continuous arterial spin labeling. Radiology 208: 410-6). CASL perfusion images are able to delineate grey and white matter and provide high resolution quantification of rCBF across the whole brain. Because of the genuine 3-dimensional encoding and readout of this multi-shot technique, and the refocusing of magnetic susceptibility induced signal distortions, the maps of whole brain rCBF obtainable with this technique are of good image quality and exquisite spatial resolution.
For the perfusion images, brain volumes were first normalized into a standard anatomical space (International Consortium on Brain Mapping—ICBM), using affine registration and non-linear transformations. Normalization utilized a single image to which all three CASL sessions were coregistered in order to reduce the likelihood of preprocessing-dependent differences between the drug and placebo session images. All images were spatially smoothed using a Gaussian kernel full-width at half-maximum filter of 6×6×6 mm to improve signal-to-noise ratio and allow for inherent functional and gyral variability across participants.
Image preprocessing and analysis were carried out using Statistical Parametric Mapping software developed by the Functional Imaging Laboratory, UCL, (SPM v5.0, www.fillon.ucl.ac.ulc/spm/)., running under Matlab 7.0.1, and a blood oxygen level dependency (BOLD) was determined. BOLD changes to cognitive tasks represent changes of neuronal activities of respective brain areas.

[3] = system: healthy young and elderly subjects; experiment: Double-blind, placebo-controlled, single and multiple oral dose safety and tolerability study; type: in vivo, human
Description: A double-blind, placebo-controlled, randomized, single, and multiple oral dose study was conducted in order to determine safety and tolerability of the bis HCl salt of compound of formula (I) in healthy young and elderly subjects. The study was conducted in two parts.
Part 1 comprised an ascending single dose, sequential group study in 48 young male subjects, incorporating a two-period crossover arm to investigate the effect of food. Part 2 comprised an ascending multiple dose, sequential group study in 24 young male subjects and an ascending single and multiple dose, sequential group study in 18 elderly subjects (10 males and 8 females) subjects. On each dosing occasion, the subjects received a single capsule containing the appropriate amount of either the bis HCl salt of compound of formula (I) or microcrystalline cellulose. Treatments were administered orally with 240 ml water while the subjects were in a standing position.
The condition of each subject was monitored throughout the study. In addition, any signs and symptoms were observed and elicited at least once a day by open questioning, such as “How have you been feeling since you were last asked?” Subjects were also encouraged to report spontaneously any adverse events during the study.
Any adverse events or remedial actions were recorded. The nature, time of onset, duration, and severity were documented. Any clinically significant abnormalities found during the course of the study were followed up until they returned to normal or could be clinically explained.
A serious adverse event is defined as any untoward medical occurrence that at any dose either results in death, is life-threatening, requires inpatient hospitalization, or prolongs existing hospitalization, results in persistent or significant disability/incapacity, and/or results in a congenital anomaly/birth defect.
Important medical events that may not result in death, be life-threatening, or require hospitalization may be considered to be serious adverse events when, based upon appropriate medical judgment, they may jeopardize the subject or may require medical or surgical intervention to prevent one of the above-described outcomes.

[4] = target: NR2B subtype of the NMDA receptor (Homo sapiens, UniProt Q05586+Q13224); experiment: Receptor occupancy estimated by extrapolation from CSF concentrations; type: in vivo; conditions: daily dose of 8 mg; extrapolated from CSF concentrations; compared with therapeutic dosages of memantine
Description: CSF samples were stored immediately in an upright position at a temperature of −70° C. or below until shipment. Compound of formula (I) concentrations were measured by a specific and validated LC-MS-MS method. […] Such concentrations in the CSF have been extrapolated to estimate the extent of occupancy of the NR2B subtype of the NMDA receptor.

[5] = Cerebrospinal fluid (CSF) penetration by lumbar puncture, LC-MS-MS; type: in vivo, human; conditions: 8 mg daily for 8 days, six healthy subjects, 3 to 4 hours after dosing on day 8
Description: One lumbar puncture per subject was performed on day 8 of treatment (daily dose of 8 mg of bis HCl salt of the compound of formula (I)), in the timeframe of 3 to 4 hours after dosing.
All care was taken to avoid contamination of the collected CSF sample with blood. Thus, only clear CSF was collected, after blood-contaminated liquid has left the cannula. Bloody taps were discarded.
Samples were aliquoted per time point for the measurement of compound of formula (I) as follows: a 0.5 ml CSF sample was aliquoted in empty dry polypropylene tubes from the ≈5 ml CSF collected at each scheduled time point.
CSF samples were stored immediately in an upright position at a temperature of −70° C. or below until shipment. Compound of formula (I) concentrations were measured by a specific and validated LC-MS-MS method. Cerebrospinal fluid (CSF) penetration has been assessed in six healthy subjects receiving 8 mg of bis HCl salt of compound of formula (I) daily for 8 days. […] Such concentrations in the CSF have been extrapolated to estimate the extent of occupancy of the NR2B subtype of the NMDA receptor. […] The selectivity of the compound of formula (I) and salts thereof in combination with the good penetration of the blood brain barrier at well-tolerated dosages according to the present invention provides a therapeutic advantage.

[6] = throughout the study, young and elderly subjects

Sequence of NR2B subtype of the NMDA receptor (Q13224 27-1484, other chains not shown): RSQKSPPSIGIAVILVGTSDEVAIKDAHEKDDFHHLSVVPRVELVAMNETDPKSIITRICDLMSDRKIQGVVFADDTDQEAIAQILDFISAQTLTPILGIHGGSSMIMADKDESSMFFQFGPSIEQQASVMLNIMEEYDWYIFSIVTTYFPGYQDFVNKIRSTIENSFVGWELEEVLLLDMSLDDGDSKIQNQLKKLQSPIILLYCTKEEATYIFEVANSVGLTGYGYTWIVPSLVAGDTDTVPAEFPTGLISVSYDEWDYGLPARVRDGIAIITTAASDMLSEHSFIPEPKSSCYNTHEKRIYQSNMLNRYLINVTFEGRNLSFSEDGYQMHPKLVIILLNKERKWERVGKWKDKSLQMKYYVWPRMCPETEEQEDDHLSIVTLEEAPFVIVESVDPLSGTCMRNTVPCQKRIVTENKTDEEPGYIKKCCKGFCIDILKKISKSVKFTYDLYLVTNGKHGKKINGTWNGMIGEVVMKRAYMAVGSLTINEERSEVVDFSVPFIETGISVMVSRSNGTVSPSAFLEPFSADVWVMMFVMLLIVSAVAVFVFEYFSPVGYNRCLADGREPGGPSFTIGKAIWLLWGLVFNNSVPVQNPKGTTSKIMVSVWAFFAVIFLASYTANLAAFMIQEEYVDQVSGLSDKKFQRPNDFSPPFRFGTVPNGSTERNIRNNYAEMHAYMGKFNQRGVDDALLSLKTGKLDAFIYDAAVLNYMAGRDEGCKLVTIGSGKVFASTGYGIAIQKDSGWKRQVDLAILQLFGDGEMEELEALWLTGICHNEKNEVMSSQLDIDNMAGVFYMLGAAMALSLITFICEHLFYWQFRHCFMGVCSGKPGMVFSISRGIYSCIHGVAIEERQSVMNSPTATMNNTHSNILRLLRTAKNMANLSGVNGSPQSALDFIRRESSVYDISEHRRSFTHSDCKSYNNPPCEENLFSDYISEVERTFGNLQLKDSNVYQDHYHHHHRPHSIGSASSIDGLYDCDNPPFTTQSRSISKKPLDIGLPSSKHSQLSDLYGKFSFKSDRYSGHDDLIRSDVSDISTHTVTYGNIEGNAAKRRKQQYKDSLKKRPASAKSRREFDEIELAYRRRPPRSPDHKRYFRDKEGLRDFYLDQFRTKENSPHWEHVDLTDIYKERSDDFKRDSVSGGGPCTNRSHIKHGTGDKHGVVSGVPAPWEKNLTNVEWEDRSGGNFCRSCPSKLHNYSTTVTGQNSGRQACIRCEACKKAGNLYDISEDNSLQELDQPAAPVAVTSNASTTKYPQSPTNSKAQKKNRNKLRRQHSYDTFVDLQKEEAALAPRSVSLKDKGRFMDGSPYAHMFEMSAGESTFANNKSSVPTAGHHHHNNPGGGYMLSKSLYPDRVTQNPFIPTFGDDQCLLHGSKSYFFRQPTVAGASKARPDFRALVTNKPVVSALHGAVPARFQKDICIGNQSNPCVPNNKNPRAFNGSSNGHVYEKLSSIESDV

In the case of `Cc1nccn1Cc1cc(-c2ccc(F)c(C(F)F)c2)cnn1` [bis HCl salt of compound of formula (I), 5-(3-difluoromethyl-4-fluoro-phenyl)-3-(2-methyl-imidazol-1-yl-methyl)-pyridazine], the “functional performance of subjects in PAL” value (healthy volunteers [1]; 8 mg and 15 mg oral, healthy young subjects) is reported as “unaffected”, the “BOLD signal during retrieval in memory retrieval network” value (healthy volunteers [1]; placebo, 8 mg, 15 mg oral, PAL task, preliminary analysis) is reported as “dose dependent increases in BOLD signal” and the “decreases in rCBF” value (healthy volunteers [2]; 8 mg and 15 mg oral) is reported as “no clusters of voxels showing significant decreases in rCBF”. The “areas of increased/decreased perfusion” value (healthy volunteers [2]; 8 mg oral vs placebo) was “No statistically significant changes”, the “increase in rCBF” value (healthy volunteers [2]; 8 mg oral) was 17.5% and the “rCBF, direct comparison with placebo” value (healthy volunteers [2]; 15 mg oral, anterior cingulate) was “highly significant cluster of increased rCBF”. The “increase in rCBF” value (healthy volunteers [2]; 15 mg oral) was 17.9%, the “rCBF normalized to global signal, main effect of drug” value (healthy volunteers [2]; averaged over 8 mg and 15 mg vs placebo, genu of the anterior cingulate cortex) was “increased signal” and the “dose response relationship of perfusion between 8 mg and 15 mg” value (healthy volunteers [2]; formal comparison across the entire brain volume, ignoring placebo) was “No changes were seen”. For the same compound, the “global perfusion (whole brain)” value (healthy volunteers [2]; placebo, 8 mg and 15 mg oral, CASL perfusion maps) was “no difference across the three conditions studied”, the “regional effects on absolute perfusion” value (healthy volunteers [2]; placebo, 8 mg and 15 mg, threshold p=0.05 corrected across whole brain) was “no significant clusters where signal differed” and the tolerability ([3]; elderly males and females, multiple oral doses (over 8 days) of up to 3 mg twice daily) was “very well tolerated”. For the same compound, the tolerability ([3]; elderly males and females, single oral doses of up to 4 mg) was “very well tolerated”, the “vital signs and electrocardiogram (ECG) parameters” value ([3]; following single or multiple dosing in young or elderly subjects) was “no apparent trends” and the “incidence of adverse events” value [3, 6] was “low incidence of mainly mild adverse events”. For the same compound, the “serious or severe adverse events” value [3, 6] was “no serious or severe adverse events”, the tolerability ([3]; young males, multiple oral doses (over 8 days) of up to 8 mg once daily) was “very well tolerated” and the tolerability ([3]; young males, single oral doses of up to 15 mg (including 2, 5 and 10 mg)) was “very well tolerated”.

With `Cc1nccn1Cc1cc(-c2ccc(F)c(C(F)F)c2)cnn1` [compound of formula (I), 5-(3-difluoromethyl-4-fluoro-phenyl)-3-(2-methyl-imidazol-1-yl-methyl)-pyridazine] the receptor occupancy [4] was “greater than that, which corresponds to currently used therapeutic dosages of memantine” and the “CSF concentration relative to plasma concentration” value [5] was “largely corresponds to the free (unbound) plasma concentrations”.
